Measurements taken from patent publication US9421281B2, “Target vector with activable imaging function” (Centre National de la Recherche Scientifique, priority 2005, dated 2016).

Legend:
[1] = Chemical cleavage of the disulfide bridge with 2-mercaptoethanol (absorption and fluorescence); format: physicochemical; conditions: for fluorescence after chemical cleavage of the S—S disulfide bridge: imaging function grafted onto RAFT-(cRGD)4, 10 mM PBS, pH 7.2, [2-MCE]=85 mM; for fluorescence of the Cy5 fluorophore(s) before cleavage of the disulfide bridge: imaging function grafted onto RAFT-(cRGD)4, 0.5 or 0.10 μM in 10 mM PBS, pH 7.2
Source text: FIG. 5: Absorption and fluorescence of the imaging function Cy5-Cys-S—S-Cys-Cy5 before and after chemical cleavage of the disulfide bridge with 2-mercaptoethanol (2-MCE). A. Absorption spectrum and evolution thereof over time during the addition of 2-MCE. […] C. Evolution over time of the fluorescence of the imaging function during the addition of 2-MCE. […] FIG. 6: Absorption and fluorescence of the imaging function Cy5-Cys-S—S-Cys-QSY21 before and after chemical cleavage of the disulfide bridge with 2-mercaptoethanol (2-MCE). A. Absorption spectra and evolution thereof over time during the addition of 2-MCE. […] C. Evolution over time of the fluorescence of the imaging function during the addition of 2-MCE. […] FIG. 10: Absorption and fluorescence of the imaging function Cy5-Cys-S—S-Cys-Cy5 grafted onto RAFT-(cRGD)4, before and after chemical cleavage of the disulfide bridge with 2-mercaptoethanol (2-MCE). A. Absorption spectrum and evolution thereof over time during the addition of 2-MCE. […] C. Evolution over time of the fluorescence of the imaging function during the addition of 2-MCE. […] FIG. 11: Absorption and fluorescence of the imaging function Cy5-Cys-S—S-Cys-QSY21 grafted onto RAFT-(cRGD)4, before and after chemical cleavage of the disulfide bridge with 2-mercaptoethanol (2-MCE). A. Absorption spectrum and evolution thereof over time during the addition of 2-MCE. […] C. Evolution over time of the fluorescence of the imaging function during the addition of 2-MCE.

[2] = test system: subcutaneous tumor of IGROV-1 type; experiment: Optical imaging of tumors in the nude mouse (fluorescence reflectance imaging); format: in vivo, nude mice; conditions: 10 nmol/mouse i.v.; for evolution of the signal in the tumor over time / signal in the tumor compared with the control probe: IGROV-1 tumor, FIG. 12A; for contrast, ratio of signal between the tumor and the skin: compared with RAFT-(cRGD)4-Cy5-Cys-S—S-cysteine, FIG. 12B
Protocol: FIG. 12: Results of the in vivo injection of the molecular probes RAFT-(cRGD)4-Cy5-Cys-S—S-Cys=Cy5, RAFT-(cRGD)4-Cy5-Cys-S—S-Cys-QSY21, and RAFT-(cRGD)4-Cy5-Cys-S—S-Cys (control) in nude mice, imaged using a fluorescence imaging device (excitation 633 nm; detection λ>670 nm). Intravenous injection of 10 nmol of probe/mouse, in 100 μL of PBS (pH 7.1, 9.5 mM), into the tail of anesthetized mice carrying, on the back, a subcutaneous tumor of IGROV-1 type ([…] injected subcutaneously 2 weeks before imaging). A. Fluorescence intensity measured in the tumor over time. B. Ratio of the fluorescence intensities measured in the tumor and in the skin over time. C. Images obtained 10 minutes and 5 h after injection for the various molecular probes.
The mice used are female nude mice 6 to 8 weeks old, maintained under pathogen-free conditions. The IGROV-1 cells (human ovarian cancer model) are cultured in an RPMI 1640 culture medium containing 1% of glutamine, 10% of FCS, 50 U/ml of penicillin and 50 μg/ml of streptomycin. The cells are maintained at 37° C. under a humid atmosphere with 5% of CO2. 10×10^6 cells are injected subcutaneously into the back of the mice 2 weeks before injection of the molecular vectors RAFT-(cRGD)4-Cy5-Cys-S—S-Cys-Cy5 and RAFT-(cRGD)4-Cy5-Cys-S—S-Cys-QSY21. The latter are injected into the tail intravenously, in 100 μl of PBS (pH 7.1, 9.5 mM), at doses of 10 nmol/mouse.
The anesthetized mice are imaged with a fluorescence reflectance imaging (FRI) device, comprising as excitation source a crown of LEDs equipped with interference filters, emitting at 633 nm (illumination power 50 μW·cm^−2). The images are collected after filtration with an RG665 colored filter of optical density>5 at the excitation wavelength by means of a CCD camera (Orca BTL, Hamamatsu), with an exposure time of 100 ms. The signals are quantified using image processing software.

Hekβ3 cells = experiment: Penetration into the cells, laser scanning confocal microscopy; format: cell-based; conditions: 1 to 2 hours of incubation
Protocol: FIG. 13: Penetration of the labels into the cells, imaged by laser scanning confocal microscopy. Hekβ3 cells after 1 to 2 hours incubation in the presence of a negative control RAFT(4cRAD)-Cy5 (column 1), or in the presence of RAFT(4cRGD)-Cy5 (column 2), RAFT(4cRGD)-Cy5-Cys-S—S-Cys-Cy5 (column 3), or RAFT(4cRGD)-Cy5-Cys-S—S-Cys-quencher (column 4). The penetration into the cells of the probes RAFT-(cRGD)4-Cy5, RAFT-(cRGD)4-Cy5-Cys-S—S-Cys-Cy5 and RAFT-(cRGD)4-Cy5-Cys-S—S-Cys-QSY21 was observed on Hekβ3 cells, after 1 to 2 hours of incubation.

Substance	fluorescence after chemical cleavage of the S—S disulfide bridge [1]	fluorescence of the Cy5 fluorophore(s) before cleavage of the disulfide bridge [1]	evolution of the signal in the tumor over time [2]	signal in the tumor compared with the control probe [2]	contrast, ratio of signal between the tumor and the skin [2]	penetration into the cells (location of fluorescence) (Hekβ3 cells)	penetration into the cells (location of fluorescence) (Hekβ3 cells; listed as RAFT-Cy5-Cys-S—S-Cys-Q)
cysteine(Cy5)-S—S-cysteine(Cy5)RAFTc[RGDfK-]4 [RAFT-(cRGD)4-Cy5-Cys-S—S-Cys-Cy5]	completely released	initially self-quenched	gradual appearance of the signal in the tumor	more signal in the tumor	increases	does not enter well	
cysteine(Cy5)-S—S-cysteine(QSY21)RAFTc[RGDfK-]4 [RAFT-(cRGD)4-Cy5-Cys-S—S-Cys-QSY21]	completely released	initially self-quenched	gradual appearance of the signal in the tumor	more signal in the tumor	increases	clear fluorescence inside the cells	penetrates into the cells better
cysteine(Cy5)-S—S-cysteineRAFTc[RGDfK-]4 [RAFT-(cRGD)4-Cy5-Cys-S—S-cysteine, reference compound]			decreases very rapidly over time				
